Experimental data reported in article PMC4812014, “Structural Investigations of N-carbamoylputrescine Amidohydrolase from Medicago truncatula: Insights into the Ultimate Step of Putrescine Biosynthesis in Plants” (Frontiers in Plant Science, 2016).
One block for each compound: values may come before it.

Legend:
[1] = target: T1, MtCPA (Medicago truncatula, UniProt G7ITU5, C158S); experiment: X-ray crystallography of complex, […] Å; assay type: binding; conditions: cocrystallized with 10 mM putrescine, pH 7.0; active site, non-covalent
T1 construct: gene MTR_2g086600; recombinant in E. coli BL21 Gold (pMCSG68); His6 tag cut by TEV, N-terminal Ser-Asn-Ala linker remains; homooctamer, active site fenced by dimer mate
T1 sequence (G7ITU5 1-301 C158S): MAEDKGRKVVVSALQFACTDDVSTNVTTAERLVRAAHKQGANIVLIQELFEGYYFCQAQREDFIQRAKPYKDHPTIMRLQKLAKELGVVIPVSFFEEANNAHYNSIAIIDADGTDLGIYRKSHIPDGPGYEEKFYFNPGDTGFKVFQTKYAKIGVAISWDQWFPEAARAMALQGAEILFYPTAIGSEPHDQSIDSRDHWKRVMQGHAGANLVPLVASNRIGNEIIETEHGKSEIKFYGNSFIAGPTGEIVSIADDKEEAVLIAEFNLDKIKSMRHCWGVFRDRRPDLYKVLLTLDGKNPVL

[2] = target: N-carbamoylputrescine amidohydrolase from Medicago truncatula (MtCPA), wild type (Medicago truncatula); experiment: crystal structure; hanging drop, 20% PEG3350, 8% Tacsimate pH 7.0 (with or without 10% glycerol); space group P2(1)2(1)2, two octamers in the asymmetric unit; data at 100 K
[3] = target: T2, MtCPA (Medicago truncatula, UniProt G7ITU5); experiment: X-ray crystallography of complex, […] Å; assay type: binding; conditions: cocrystallized with 17 mM cadaverine, pH 7.0; active site, non-covalent
T2 construct: gene MTR_2g086600; recombinant in E. coli BL21 Gold (pMCSG68); His6 tag cut by TEV, N-terminal Ser-Asn-Ala linker remains; homooctamer, active site fenced by dimer mate
T2 sequence (G7ITU5 entry or part of it): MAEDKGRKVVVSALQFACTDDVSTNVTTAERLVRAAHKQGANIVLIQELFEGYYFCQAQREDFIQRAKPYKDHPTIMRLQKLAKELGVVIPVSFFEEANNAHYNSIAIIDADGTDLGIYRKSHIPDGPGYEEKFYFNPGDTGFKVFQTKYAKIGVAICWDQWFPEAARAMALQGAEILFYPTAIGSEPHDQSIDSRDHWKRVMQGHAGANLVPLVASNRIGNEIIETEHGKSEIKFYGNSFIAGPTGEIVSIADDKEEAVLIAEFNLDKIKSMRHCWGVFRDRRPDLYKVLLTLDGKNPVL

[4] = target: T2, MtCPA; experiment: X-ray crystallography of complex, […] Å; assay type: binding; conditions: covalent; bound to Cys158 in active site; formed in crystal from 10 mM putrescine (probably with CO2), pH 7.0
[5] = target: MtCPA-C158S mutant (Medicago truncatula); experiment: crystal structure; hanging drop, 20% PEG3350, 8% Tacsimate pH 7.0 (with or without 10% glycerol); space group P2(1)2(1)2, two octamers in the asymmetric unit; data at 100 K

Compound: NCCCCN [PUT, 1,4-diaminobutane]
X-ray crystallography of complex, 2.29 Å [1]: MtCPA-C158S mutant cocrystallized with PUT clearly shows the ligand without any modifications

stoichiometry N [2]: 8
Compound: N-carbamoylputrescine amidohydrolase from Medicago truncatula (MtCPA), wild type (enzyme)

Compound: NCCCCCN [CAD, 1,5-diaminopentane]
X-ray crystallography of complex, 2.19 Å [3]: we do indeed observe CAD in the active site

Compound: NCCCCNC(O)O [DHMP, N-(dihydroxymethyl)putrescine]
X-ray crystallography of complex, 1.97 Å [4]: DHMP was covalently bound to the catalytic Cys158

stoichiometry N [5]: 8
Compound: MtCPA-C158S mutant (enzyme)
